The record followed here is ChEMBL document CHEMBL4007501, “Synthesis and antitumor evaluation of 2,3-diarylbenzofuran derivatives on HeLa cells” (Bioorg Med Chem Lett, 2017).

Assay [1] has as its system HeLa. Description: Cytotoxicity against human HeLa cells assessed as decrease in cell viability after 48 hrs by MTT assay. The format is functional, cell-based.
The test system of assay [2] is HeLa. Description: Cytotoxicity against human HeLa cells assessed as decrease in cell viability at 20 uM after 48 hrs by MTT assay relative to control. Type of assay: functional.
The subject of assay [3] is HeLa. Description: Induction of apoptosis in human HeLa cells assessed as late apoptotic cells at 30 uM after 24 hrs by annexin V/FITC-propidium iodide staining-based flow cytometric method (reference value: 0.987%). The format is functional.
For assay [4], the system named is HeLa. Description: Induction of apoptosis in human HeLa cells assessed as necrotic cells at 30 uM after 24 hrs by annexin V/FITC-propidium iodide staining-based flow cytometric method (reference value: 1.81%). The format is functional.
For assay [5], the system named is HeLa. Description: Induction of apoptosis in human HeLa cells assessed as viable cells at 20 uM after 24 hrs by annexin V/FITC-propidium iodide staining-based flow cytometric method (reference value: 95.4%). Type of assay: functional. To be noted: read-out: Activity.
Assay [6] has as its system HeLa. Description: Induction of apoptosis in human HeLa cells assessed as early apoptotic cells at 20 uM after 24 hrs by annexin V/FITC-propidium iodide staining-based flow cytometric method (reference value: 1.76%). Type of assay: functional.
The test system of assay [7] is HeLa. Description: Cell cycle arrest in human HeLa cells assessed as accumulation at S phase at 20 uM after 48 hrs by propidium iodide staining-based flow cytometric analysis (reference value: 29.20%). Type of assay: functional.
The test system of assay [8] is HeLa. Kind of assay: Induction of apoptosis in human HeLa cells assessed as late apoptotic cells at 20 uM after 24 hrs by annexin V/FITC-propidium iodide staining-based flow cytometric method (reference value: 0.987%). Type of assay: functional.
Assay [9] concerns HeLa. Kind of assay: Induction of apoptosis in human HeLa cells assessed as late apoptotic cells at 10 uM after 24 hrs by annexin V/FITC-propidium iodide staining-based flow cytometric method (reference value: 0.987%). The format is functional.
Assay [10] has as its system HeLa. Description: Downregulation of Bcl-2 expression in human HeLa cells at 10 to 30 uM after 24 hrs by Western blot method. The format is functional, cell-based.
The test system of assay [11] is HeLa. Description: Cell cycle arrest in human HeLa cells assessed as accumulation at G2 phase at 10 uM after 48 hrs by propidium iodide staining-based flow cytometric analysis (reference value: 4.45%). The format is functional.
For assay [12], the system named is HeLa. Description: Cell cycle arrest in human HeLa cells assessed as accumulation at S phase at 30 uM after 48 hrs by propidium iodide staining-based flow cytometric analysis (reference value: 29.20%). The format is functional.
Assay [13] relates to HeLa. Description: Cell cycle arrest in human HeLa cells assessed as accumulation at S phase at 10 uM after 48 hrs by propidium iodide staining-based flow cytometric analysis (reference value: 29.20%). Type of assay: functional.
Assay [14] has as its system HeLa. Description: Cell cycle arrest in human HeLa cells assessed as accumulation at G2 phase at 20 uM after 48 hrs by propidium iodide staining-based flow cytometric analysis (reference value: 4.45%). Type of assay: functional.
The subject of assay [15] is HeLa. Description: Induction of apoptosis in human HeLa cells assessed as necrotic cells at 20 uM after 24 hrs by annexin V/FITC-propidium iodide staining-based flow cytometric method (reference value: 1.81%). The format is functional.
Assay [16] deals with HeLa. Kind of assay: Downregulation of Bcl-xL expression in human HeLa cells at 10 to 30 uM after 24 hrs by Western blot method. Type of assay: functional, cell-based.
In assay [17] the test system is HeLa. Kind of assay: Cell cycle arrest in human HeLa cells assessed as accumulation at G2 phase at 30 uM after 48 hrs by propidium iodide staining-based flow cytometric analysis (reference value: 4.45%). Type of assay: functional.
In assay [18] the test system is HeLa. Kind of assay: Cell cycle arrest in human HeLa cells assessed as accumulation at G1 phase at 30 uM after 48 hrs by propidium iodide staining-based flow cytometric analysis (reference value: 66.35%). The format is functional.
The subject of assay [19] is HeLa. Description: Cell cycle arrest in human HeLa cells assessed as accumulation at G1 phase at 10 uM after 48 hrs by propidium iodide staining-based flow cytometric analysis (reference value: 66.35%). Type of assay: functional.
In assay [20] the test system is HeLa. Description: Upregulation of Bim expression in human HeLa cells at 10 to 30 uM after 24 hrs by Western blot method. Type of assay: functional, cell-based.
Assay [21] has as its system HeLa. Kind of assay: Upregulation of Bak expression in human HeLa cells at 10 to 30 uM after 24 hrs by Western blot method. Type of assay: functional, cell-based.
In assay [22] the test system is HeLa. Description: Cytotoxicity against human HeLa cells assessed as decrease in cell viability at 10 uM after 48 hrs by MTT assay relative to control. Type of assay: functional.
For assay [23], the system named is HeLa. Kind of assay: Induction of apoptosis in human HeLa cells assessed as early apoptotic cells at 10 uM after 24 hrs by annexin V/FITC-propidium iodide staining-based flow cytometric method (reference value: 1.76%). Type of assay: functional.
Assay [24] concerns HeLa. Kind of assay: Induction of apoptosis in human HeLa cells assessed as viable cells at 30 uM after 24 hrs by annexin V/FITC-propidium iodide staining-based flow cytometric method (reference value: 95.4%). Type of assay: functional. The following applies: read-out: Activity.
The test system of assay [25] is HeLa. Kind of assay: Induction of apoptosis in human HeLa cells assessed as necrotic cells at 10 uM after 24 hrs by annexin V/FITC-propidium iodide staining-based flow cytometric method (reference value: 1.81%). Type of assay: functional.
The test system of assay [26] is HeLa. Description: Cell cycle arrest in human HeLa cells assessed as accumulation at G1 phase at 20 uM after 48 hrs by propidium iodide staining-based flow cytometric analysis (reference value: 66.35%). The format is functional.
Assay [27] concerns HeLa. Description: Induction of apoptosis in human HeLa cells assessed as early apoptotic cells at 30 uM after 24 hrs by annexin V/FITC-propidium iodide staining-based flow cytometric method (reference value: 1.76%). Type of assay: functional.
Assay [28] deals with HeLa. Kind of assay: Induction of apoptosis in human HeLa cells assessed as viable cells at 10 uM after 24 hrs by annexin V/FITC-propidium iodide staining-based flow cytometric method (reference value: 95.4%). The format is functional. The following applies: read-out: Activity.
The next assay concerns P388. Description: Cytotoxicity against mouse P388 cells assessed as growth inhibition. Type of assay: functional, cell-based.
The next assay relates to MCF7. Description: Cytotoxicity against human MCF7 cells assessed as decrease in cell viability by MTT assay. Type of assay: functional, cell-based.
The test system of another assay is HepG2. Kind of assay: Cytotoxicity against human HepG2 cells assessed as decrease in cell viability by MTT assay. The format is functional, cell-based.

The source made the active and inactive calls. The rule behind the calls is not given here.

On to `CC[C@@]1(O)C(=O)OCc2c1cc1n(c2=O)Cc2cc3cc(O)ccc3nc2-1` [HYDROXYCAMPTOTHECIN], for which the IC50 with HeLa [1] turned out to be 10 µM.

For `Cc1cccc(-c2oc3cc(O)ccc3c2-c2ccc(O)cc2O)c1`, the Activity was 65% with HeLa [2]; 36.2% in the assay on HeLa [3]; 11.5% with HeLa [4]; 8.57% with HeLa [6]; 30.15% in the assay on HeLa [7]; 18.9% in the assay with HeLa [8]. Moreover, the Activity in the assay with HeLa [9] was found to be 7.26%; in the assay with HeLa [11] it was 7.56%; in the assay with HeLa [12] it was 31.82%; with HeLa [13], 21.56%; in the assay on HeLa [14], 6.31%; in the assay on HeLa [15], 3.08%. Besides, the Activity in the assay on HeLa [17] is 7.1%; with HeLa [18], 61.08%; with HeLa [19], 70.88%; in the assay with HeLa [22], 30%; in the assay on HeLa [23], 8.05%; with HeLa [25] it was 1.97%. For the same compound, the results for the Activity in the assay on HeLa [26] and in the assay on HeLa [27] were 63.54% and 10.3%, respectively. In addition, the viability at 20 µM with HeLa [5] worked out at 69.5%. The IC50 in the assay on HeLa [1] was determined as 13.4 µM. The outcome in the assay on HeLa [10], in the assay on HeLa [16], in the assay with HeLa [20] and with HeLa [21] was Active. In addition, in the assay with HeLa [24], the viability at 30 µM was 42.1%. Further, the viability at 10 µM with HeLa [28] was 82.7%.

Turning to `Oc1ccc(-c2c(-c3ccccc3Br)oc3cc(O)ccc23)c(O)c1`, in the assay with HeLa [1], the IC50 was greater than 100 µM.

On to `COc1cccc(-c2c(-c3ccccc3)oc3c(OC)cccc23)c1O`, for which the IC50 with HeLa [1] came out at 57.8 µM.

Take `O=C1c2c(O)cc(O)cc2-c2c(-c3ccc(O)cc3)oc3cc(O)cc1c23`: the IC50 with P388 came out at 13.2 µM.

For the compound `Oc1ccc(-c2c(-c3ccc(Cl)cc3)oc3cc(O)ccc23)c(O)c1`, in the assay on HeLa [1], the IC50 worked out at 32.7 µM.

Consider `COc1ccc(-c2c(-c3ccccc3)oc3cc(OC)ccc23)c(O)c1`, for which the IC50 in the assay on HeLa [1] amounted to 28.9 µM.

`Oc1ccc(-c2c(-c3ccc(F)cc3)oc3cc(O)ccc23)c(O)c1`: the IC50 with HeLa [1] is 28.3 µM.

`COc1ccc(/C=C/c2cc(OC)c3c(-c4cc(OC)cc(OC)c4)c(-c4ccc(OC)cc4)oc3c2)cc1`: the values for the IC50 in the assay on MCF7 and in the assay on HepG2 were 0.85 µM and 0.24 µM, respectively.

As for `COc1ccc(-c2oc3cc(O)ccc3c2-c2ccc(O)cc2O)cc1`, the IC50 in the assay with HeLa [1] turned out to be 13.7 µM.

`Oc1ccc(-c2c(-c3cccnc3)oc3cc(O)ccc23)c(O)c1`: the IC50 with HeLa [1] is 19.9 µM.

As for `Oc1ccc(-c2c(-c3ccc4ccccc4c3)oc3cc(O)ccc23)c(O)c1`, in the assay on HeLa [1], the IC50 came to 21.2 µM.

Regarding `Oc1ccc(-c2oc3cc(O)ccc3c2-c2ccc(O)cc2O)cc1`, the IC50 in the assay with HeLa [1] was 32 µM.

`Cc1ccc(-c2oc3cc(O)ccc3c2-c2ccc(O)cc2O)cc1`: the IC50 in the assay on HeLa [1] is 29.2 µM.

For `Oc1ccc(-c2c(-c3cccc(Br)c3)oc3cc(O)ccc23)c(O)c1`, the IC50 in the assay with HeLa [1] amounted to 26.9 µM.

Regarding `Oc1ccc(-c2c(-c3ccccc3)oc3cc(O)ccc23)c(O)c1`, in the assay on HeLa [1], the IC50 came out at 29.7 µM.

As for `COc1cccc(-c2oc3cc(O)ccc3c2-c2ccc(O)cc2O)c1`, the concentration for half-maximal inhibition (IC50) with HeLa [1] worked out at 29.9 µM.

As for `Oc1ccc(-c2c(-c3ccc(Br)cc3)oc3cc(O)ccc23)c(O)c1`, in the assay with HeLa [1], the IC50 was 36.7 µM.

`Cc1ccccc1-c1oc2cc(O)ccc2c1-c1ccc(O)cc1O`: the IC50 with HeLa [1] came to 47.5 µM.
